Data on four compounds can be found in patent US20080096903A1, “SULFAMOYL-CONTAINING DERIVATIVES AND USES THEREOF” (Wyeth, priority 2006, published 2008).

In series [1] the target is Hsp90α Protein (Homo sapiens, UniProt P07900). As to the kind of experiment: Hsp90 CE Competitive Binding Assay (displacement of fluorescein-labelled geldanamycin). As for the experimental part:
Hsp90 CE Competitive Binding Assay: […]
b) “Competitor”, fluorescein-labelled geldanamycin • The competitor was synthesized as described by Llauger-Bufi et al, Bioorg.
The electrophoresis running buffer (RB) is comprised of 200 mM CAPSO, pH 9.2 (pH-adjusted with Trizma base). The sample buffer (SB) is comprised of 10 mM Trizma base, pH 8.0 (pH-adjusted with glacial acetic acid), 5 mM MgCl2, 5 mM DTT, and BSA and Triton as noted.
Capillary electrophoresis was performed on Cetek Gemini Systems™ using laser-induced fluorescence detection. Fused-silica capillaries (50 μm I.D.×30 cm, approximately 10 cm length from end to detection window) were internally coated using Cetek's proprietary methods.
Each sample (i.e., fermentation extract, partially-purified fraction, or compound mixture, or pure compound) to be assayed is prediluted 1:20 or 1:40 in SB containing 0.02% Triton. 1 μl of each prediluted sample is then deposited into a 96-well microtiter plate and mixed with 8 μl of Target Cocktail. These samples can be stored at 4° C. until ready for assay.
When ready for analysis, the plates are transferred to the deck of a Gemini System. To each mixture of sample and target, 1 μl of Competitor Cocktail is added and mixed thoroughly. This reaction mixture is allowed to incubate for 8 minutes on the refrigerated deck of the Gemini System (temperature 8° C.). During incubation, the CE capillary is rinsed for 30 seconds with RB containing 2 mg/ml BSA, and then 60 seconds with RB. At the end of incubation, a small plug of the reaction mixture is then injected into the capillary at low pressure (0.5 psi) for 7 seconds. The loaded capillary is then dipped into reservoirs containing RB and the sample is electrophoresed at 10 kV for 6 minutes at a temperature of 8° C.
The electrophoretic separation produces a graphical profile known as an “electropherogram,” which contains a peak representing the intact complex between Hsp90 and competitor, and a smaller series (typically, a triplet) of peaks representing unbound competitor. […] Dose-response experiments, which evaluate the degree of competitor displacement as a function of sample concentration, are subsequently run in triplicate to validate hits and to quantitate their potencies, which are expressed as IC50 values.
Negative controls are comprised of 0.5% DMSO, and positive controls are comprised of 0.1 μg/ml 17-AAG.

In series [2] the test system is protein synthesis. To be noted: literature reports; cited from earlier work.
The subject of series [3] is mice. To be noted: Takahashi and Bepu, J. Antibiotics 1982; cited from earlier work.
Series [4] deals with HSP90alpha protein (Homo sapiens, UniProt P07900). As to the kind of experiment: Hsp90alpha and BODIPY-Geldanamycin Fluorescent Polarization Binding Assay. Conditions: 5 nM BODIPY GA, 30 nM Hsp90alpha. As for the experimental part: Hsp90alpha and BODIPY-Geldanamycin Fluorescent Polarization Binding Assay Materials • HSP90alpha protein (Stressgen SPP-776) and BODIPY Labeled Geldanamycin (GA) was added to assay buffer stock (stored at 4 C): 20 mM Hepes pH 7.3, 50 mM KCl, 20 mM NaMoO4, 0.01% NP40 • Working Assay buffer: assay buffer stock @RT with freshly added 2 mM DTT and 0.1 mg/ml • Bovine Gamma Globulin (Panvera P2045, 5 mg/ml) • Black 96well micro titer plates (Thermo #7205, vwr# 25227-304) Sample Set-up and Controls • Competitive Binding Samples: 5 nM GA and 30 nM Hsp90alpha and inhibitor • Control Samples: buffer only, BODIPY GA only, BODIPY GA plus Hsp90alpha, BODIPY GA plus • Hsp90alpha and unlabeled GA Protocol 1. Prepare working assay buffer with Hsp90alpha protein at a final concentration of 30 nM per well in 100 ul final volume. Add 85 ul of this solution per well to 96 well black micro titer plate. (for 20 ml assay buffer add 400 ul 1 M DTT stk and 400 ul 5 mg/ml BGG stk) (1 mg/ml Hsp90 stock=˜11 uM protein; want 0.03 uM final in 100 ul, so adjust to 0.035 uM in 85 ul which is 1:314 fold dilution into assay buffer=64 ul protein plus 20 ml buffer to dispense 85 ul/well). 2. Add 5 ul of inhibitors @ 20× final desired concentration. For 10 ug/ml start, the overall dilution from 1 mg/ml stocks is 1:100. […] Use Wallac Envision to read FP using protocol: JENs FP FITC Dual in room 4603. (parameters are: mirror module-FITC FP dual, excitation filter-FITC FP 480, emission filters-FITC FP P-pol 535 and FITC FP S-pol 535) Analysis of Results The Envision instrument automatically prepares a calculation based on the readings it obtains from the two measurements. […] By adjusting G to 0.96 or 0.97, the FP measurement calculation will result in a “0” reading for BODIPY GM without Hsp90. […] IC50s will be determined manually from percent polarization values plotted in Microsoft Excel. […]

As a reminder, the IC50 is the concentration that inhibits the measured activity by half. With `Nc1nc(Cl)nc2c1ncn2C1OC(COS(N)(=O)=O)C(O)C1O` (stereo not shown) [CSA, 2-chloro-5′-sulfamoyladenosine, reference compound], in series [1], the “HSP90 inhibition / binding (in words)” value is listed as “inhibits HSP90”. Further, the IC50 in series [1] (initial structure activity relationship table, read-out: HSP90 CE IC50) was determined as 1 µM. The “inhibition of protein synthesis” value in series [2] was “inhibit protein synthesis”. The toxicity to mice result in series [3] is reported as “toxic to mice”.
`Nc1nc(F)nc2c1nc(Cc1cc3c(cc1I)OCO3)n2Cc1cn(CCOS(N)(=O)=O)nn1` [Example 16A, Sulfamic Acid 2-(4-((6-amino-2-fluoro-8-((6-iodobenzo[d][1,3]dioxol-5-yl)methyl)-9H-purin-9-yl)methyl)-1H-1,2,3-triazol-1-yl)ethyl ester]: in series [4], the IC50 came out at 0.18 µM.
Still for that read-out and setting: next, `Nc1nc(F)nc2c1nc(Cc1cc3c(cc1I)OCO3)n2CC#CCN1CCC(OS(N)(=O)=O)C1` (stereo not shown) [Example 160]: 0.14 µM.
Still for that read-out and setting: next, `Nc1nc(F)nc2c1nc(Cc1cc3c(cc1I)OCO3)n2Cc1cn(CCCOS(N)(=O)=O)nn1` [Example 16B, Sulfamic Acid 3-[4-({6-amino-2-fluoro-8-[(6-iodo-1,3-benzodioxol-5-yl)methyl]-9H-purin-9-yl}methyl)-1H-1,2,3-triazol-1-yl]propyl ester]: 0.39 µM.
